Reference: ChEMBL document CHEMBL1157898 (Bioorg Med Chem Lett, 2010)
Active and inactive are the calls of the source. No cut-off for these calls is given here.

Tests used:
[1] = system: H4; assay: Toxicity in human H4 cells at 10 uM; type: cell-based; details: h4, 10 µM
[2] = system: N2a; assay: Inhibition of gamma secretase mediated amyloid beta 40 secretion in mouse N2a cells overexpressing CK1epsilon-271 within 5- to 50 uM after 3hr; type: cell-based
[3] = target: Dual specificity tyrosine-phosphorylation-regulated kinase 1A (Homo sapiens) (UniProt Q13627); assay: Inhibition of DYRK1A
[4] = target: RAF proto-oncogene serine/threonine-protein kinase (Homo sapiens) (UniProt P04049); assay: Inhibition of C-Raf
Chain of RAF proto-oncogene serine/threonine-protein kinase (Homo sapiens) (P04049 whole entry): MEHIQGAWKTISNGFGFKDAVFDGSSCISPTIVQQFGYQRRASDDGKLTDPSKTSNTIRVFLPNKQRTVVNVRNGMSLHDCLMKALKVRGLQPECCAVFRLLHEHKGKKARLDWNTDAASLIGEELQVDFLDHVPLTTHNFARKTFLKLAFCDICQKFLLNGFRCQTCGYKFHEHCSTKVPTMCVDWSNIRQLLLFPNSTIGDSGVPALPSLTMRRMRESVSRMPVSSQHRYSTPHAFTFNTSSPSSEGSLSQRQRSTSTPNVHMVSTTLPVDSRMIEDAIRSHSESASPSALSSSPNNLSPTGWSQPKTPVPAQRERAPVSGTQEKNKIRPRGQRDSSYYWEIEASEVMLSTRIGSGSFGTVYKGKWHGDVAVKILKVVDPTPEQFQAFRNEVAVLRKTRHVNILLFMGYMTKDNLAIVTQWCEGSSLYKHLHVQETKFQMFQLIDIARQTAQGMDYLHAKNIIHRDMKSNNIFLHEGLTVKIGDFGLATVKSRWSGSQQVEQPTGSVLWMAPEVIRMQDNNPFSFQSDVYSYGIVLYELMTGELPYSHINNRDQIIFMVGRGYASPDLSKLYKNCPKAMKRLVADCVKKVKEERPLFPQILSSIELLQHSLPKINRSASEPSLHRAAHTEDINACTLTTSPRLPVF

[5] = target: T1, Gamma-secretase (Homo sapiens) (UniProt Q96BI3+Q9NZ42+Q8WW43+P49768+Q92542+P49810); assay: Inhibition of gamma secretase in HEK293 cells assessed as amyloid beta 38 secretion at 50 uM; type: cell-based
[6] = target: T1, Gamma-secretase (Homo sapiens); assay: Inhibition of gamma secretase in HEK293 cells assessed as amyloid beta secretion at 150 uM; type: cell-based
[7] = target: T2, Calcium/calmodulin-dependent protein kinase type IV (Homo sapiens) (UniProt Q16566); assay: Inhibition of CAMK4
T2 sequence (whole entry): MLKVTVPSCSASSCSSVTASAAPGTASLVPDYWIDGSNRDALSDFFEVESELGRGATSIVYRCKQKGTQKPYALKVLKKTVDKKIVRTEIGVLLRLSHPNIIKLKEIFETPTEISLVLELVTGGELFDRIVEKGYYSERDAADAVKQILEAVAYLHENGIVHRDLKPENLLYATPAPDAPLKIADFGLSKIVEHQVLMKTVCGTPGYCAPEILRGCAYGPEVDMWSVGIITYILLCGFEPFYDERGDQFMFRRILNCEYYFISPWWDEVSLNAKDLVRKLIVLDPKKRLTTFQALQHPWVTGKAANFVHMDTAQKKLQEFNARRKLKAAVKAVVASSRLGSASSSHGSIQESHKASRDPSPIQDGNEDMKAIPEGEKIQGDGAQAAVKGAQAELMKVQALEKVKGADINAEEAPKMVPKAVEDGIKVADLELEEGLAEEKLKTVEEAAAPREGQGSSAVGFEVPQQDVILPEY

[8] = target: T1, Gamma-secretase (Homo sapiens); assay: Inhibition of gamma secretase in HEK293 cells assessed as amyloid beta 40 secretion at 50 uM; type: cell-based
[9] = target: Serine/threonine-protein kinase Chk2 (Homo sapiens) (UniProt O96017); assay: Inhibition of CHK2
Chain of Serine/threonine-protein kinase Chk2 (Homo sapiens) (O96017 whole entry): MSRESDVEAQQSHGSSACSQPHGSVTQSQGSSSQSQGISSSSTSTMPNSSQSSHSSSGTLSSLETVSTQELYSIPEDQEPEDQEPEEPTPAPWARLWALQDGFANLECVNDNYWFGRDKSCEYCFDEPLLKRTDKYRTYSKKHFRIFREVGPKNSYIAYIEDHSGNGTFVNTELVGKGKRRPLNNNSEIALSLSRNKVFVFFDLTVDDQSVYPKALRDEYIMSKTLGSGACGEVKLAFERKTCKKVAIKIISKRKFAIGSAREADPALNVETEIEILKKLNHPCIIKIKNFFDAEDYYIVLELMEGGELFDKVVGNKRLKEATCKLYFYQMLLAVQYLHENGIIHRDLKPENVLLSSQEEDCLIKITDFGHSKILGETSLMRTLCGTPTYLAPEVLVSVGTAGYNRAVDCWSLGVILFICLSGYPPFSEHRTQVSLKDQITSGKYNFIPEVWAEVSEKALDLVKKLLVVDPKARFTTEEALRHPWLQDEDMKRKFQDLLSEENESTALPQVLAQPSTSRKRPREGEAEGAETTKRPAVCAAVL

[10] = target: Mitogen-activated protein kinase 1 (Homo sapiens) (UniProt P28482); assay: Inhibition of ERK2
Chain of Mitogen-activated protein kinase 1 (Homo sapiens) (P28482 whole entry): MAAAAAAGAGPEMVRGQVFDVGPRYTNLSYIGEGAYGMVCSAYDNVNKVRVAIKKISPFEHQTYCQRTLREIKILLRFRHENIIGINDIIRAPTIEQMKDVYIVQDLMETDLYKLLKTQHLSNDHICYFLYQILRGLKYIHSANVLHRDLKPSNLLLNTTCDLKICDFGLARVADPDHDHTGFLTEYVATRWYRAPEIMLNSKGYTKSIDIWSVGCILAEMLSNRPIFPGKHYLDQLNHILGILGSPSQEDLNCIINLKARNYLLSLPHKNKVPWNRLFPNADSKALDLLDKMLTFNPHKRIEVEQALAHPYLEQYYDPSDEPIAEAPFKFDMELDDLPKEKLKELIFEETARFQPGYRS

[11] = target: T1, Gamma-secretase (Homo sapiens); assay: Inhibition of gamma secretase in HEK293 cells assessed as amyloid beta 42 secretion at 50 uM; type: cell-based
[12] = system: N2a; assay: Inhibition of gamma secretase mediated amyloid beta 42 secretion in mouse N2a cells overexpressing CK1epsilon-271 within 5- to 50 uM after 3hr; type: cell-based
[13] = target: T1, Gamma-secretase (Homo sapiens); assay: Inhibition of gamma secretase in HEK293 cells assessed as amyloid beta secretion at 250 uM; type: cell-based
[14] = target: Casein kinase I isoform delta (Homo sapiens) (UniProt P48730); assay: Inhibition of CK1delta
Chain of Casein kinase I isoform delta (Homo sapiens) (P48730 whole entry, looked up, canonical isoform): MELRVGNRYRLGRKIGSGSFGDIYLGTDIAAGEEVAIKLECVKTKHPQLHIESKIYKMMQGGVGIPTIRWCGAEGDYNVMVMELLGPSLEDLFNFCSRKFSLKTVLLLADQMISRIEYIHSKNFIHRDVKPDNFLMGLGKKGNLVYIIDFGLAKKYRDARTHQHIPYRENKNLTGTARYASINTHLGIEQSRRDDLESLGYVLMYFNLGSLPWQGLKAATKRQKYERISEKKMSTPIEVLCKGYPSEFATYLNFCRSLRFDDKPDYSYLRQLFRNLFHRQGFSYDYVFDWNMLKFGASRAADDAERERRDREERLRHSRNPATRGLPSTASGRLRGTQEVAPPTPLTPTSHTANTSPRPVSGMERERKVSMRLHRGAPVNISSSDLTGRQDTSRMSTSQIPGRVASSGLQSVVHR

[15] = target: T1, Gamma-secretase (Homo sapiens); assay: Inhibition of gamma secretase mediated amyloid beta 38 generation in human H4 cells at 5 uM by LPECL assay; values are per cent of control
[16] = target: T1, Gamma-secretase (Homo sapiens); assay: Inhibition of gamma secretase mediated amyloid beta 42 generation in human H4 cells at 5 uM by LPECL assay; values are per cent of control
[17] = target: T1, Gamma-secretase (Homo sapiens); assay: Inhibition of gamma secretase mediated amyloid beta 40 generation in human H4 cells at 5 uM by LPECL assay; values are per cent of control
[18] = target: T1, Gamma-secretase (Homo sapiens); assay: Inhibition of gamma secretase in HEK293 cells assessed as amyloid beta secretion; type: cell-based

COc1cc(/C=C2/C(=O)Nc3ccc(Cl)cc32)cc(OC)c1OC
Activity [1]: 80 µM

COc1cc(OC)c(C=C2C(=O)Nc3ccccc32)c(OC)c1
inhibition [2]: 68% | inhibition [3]: inactive | inhibition [4]: inactive | inhibition [5]: inactive | inhibition [6]: inactive | inhibition [7]: inactive | inhibition [8]: inactive | inhibition [9]: inactive | inhibition [10]: inactive | inhibition [11]: inactive | inhibition [12]: 61% | inhibition [13]: Active

COc1cc(OC)c(/C=C2/C(=O)Nc3ccc(Cl)cc32)c(OC)c1
inhibition ([3]; concentration not given here): < 20% | inhibition ([4]; concentration not given here): < 20% | inhibition ([7]; concentration not given here): < 20% | inhibition ([9]; concentration not given here): < 20% | inhibition ([10]; concentration not given here): < 20% | inhibition ([14]; concentration not given here): < 20% | Activity [1]: 20 µM

O=C1Nc2ccc(Cl)cc2/C1=C\c1cc(F)cc(F)c1
residual activity [15]: 81% | residual activity [16]: 112% | residual activity [17]: 106%

COc1ccc(/C=C2/C(=O)Nc3ccc(Cl)cc32)c(OC)c1OC
inhibition [3]: inactive | inhibition [4]: inactive | inhibition [7]: inactive | inhibition [9]: inactive | inhibition [10]: inactive | inhibition [14]: inactive | Activity [1]: 20 µM

CCN(CC)CCNC(=O)c1c(C)[nH]c(/C=C2\C(=O)Nc3ccc(F)cc32)c1C [SUNITINIB]
Activity [18]: inactive | Activity [1]: 40 µM
